Results: patent US12208071B2, “Glucagon receptor antagonists” (LIGAND PHARMACEUTICALS INCORPORATED, priority 2018, dated 2025)
“Also recorded” adds a separate entry of the source.

Assays:
Type in all cases: physicochemical
[1] = Aqueous solubility, 24 hours at 25° C., HPLC; settings: for solubility at 24 h: 25 °C, thermodynamic from solid; for solubility at 24 h / Solubility: 24 hours at 25° C., n = 2
Method: The testing media: Water, pH 4.0, 6.8, 7.4, 10.0 USP buffers (50 mM), 0.1N HCl, 0.01N HCl, SGF, FaSSIF, FeSSIF.
About 10 mg of Polymorph Form A was weighed and added to a 1.5 mL vial, and then 1.0 mL of aqueous media was added into the vial. The vial was shaken for 24 hours at 25° C. After equilibration for 24 hours, the mixture was centrifuged at 14000 rpm for 10 mins. The concentration of supernatant was checked by HPLC and the residuals were checked by XRPD. The final pH of supernatant was recorded. Experiments were conducted in duplicate.

[2] = Accelerated stability (ICH), 40° C./75% RH; settings: for Appearance / Assay (anhydrous w/w %) / Chiral purity (area %) / Individual related substance (area %, w/w), RRT 0.46 / Individual related substance (area %, w/w), RRT 0.64 / Individual related substance (area %, w/w), RRT 1.26 / Purity (area %) / Total related substances (area %, w/w) / Water content (%) / XRPD: 40° C./75% RH
Method: Polymorph Form A was manufactured under Good Manufacturing Practices (GMP)-compliant conditions at a scale of 1.26 kg. The container closure for the batch consisted of double-lined low density polyethylene bags placed inside fiberboard drums, and the batch was on ICH stability under storage conditions of 25° C./60% relative humidity (RH) and 40° C./75% RH. Long-term stability data through the 36-month interval and accelerated stability data through the 6-month interval are shown in Tables 2 and 3.
Stability samples were tested according to the protocol (Table 5) and to the same specification as the drug substance. The available stability data for samples stored at 25° C./60% RH and 40° C./75% RH are summarized.

[3] = pKa measurement (Sirius T3, pH-metric and UV-metric); settings: pH-metric (MeOH, DMSO, Dioxane co-solvent) and UV-metric (DMSO) methods, pH 1.0 to pH 11.0
Method: There are two methods available on the Sirius T3 for pKa measurement: potentiometric titration and spectroscopic (UV) titration.
Potentiometric Titration Method is a method which works for any ionicable compound and its standard working range is pH 3.0 to pH 11.0. […] Where this cannot be achieved, the use of organic co-solvents to enhance the solubility is employed.
Its available pH range is typically between 0.5 and 13.5. A compound concentration of 50 μM is typically used, i.e., ten fold lower than the pH-metric method. Co-solvent determination may also be performed when the assayed compounds remain insoluble under all other conditions.
When co-solvent solutions had been employed by pH-metric method or UV-metric method, the psKa values are extrapolated to zero percent organic content using the Yasuda-Shedlovsky extrapolation procedure, which yields extrapolated aqueous pKa values and slope information which can be used to ascertain the acidic/basic characteristics of the ionisable groups.
About 1 mg of Polymorph Form A was weighed into a sample vial, about 1.5 mL of co-solvent (60v % DMSO, 80v % MeOH or 60v % Dioxane) was added into the vial manually, then titrated with acid or base to obtain a psKa value with co-solvent and water, and extrapolated to get aqueous pKa value. Tables 7-9 below and FIGS. 7A-9B provide the results of pKa determination by pH metric method. […]

[4] = Intrinsic dissolution rate (IDR); settings: for Detection in dissolution medium (IDR test): total 120 min
Method: Testing media: water, 0.1N HCl, pH 6.8 USP buffer
About 200 mg Polymorph Form A was weighed into the intrinsic dissolution apparatus (diameter: 0.795 cm) and compressed for 1 minute with 1 ton compression force to make the material compact. The intrinsic dissolution apparatus was slid into the dissolution test chuck and tightened. The shaft in the spindle was adjusted to ensure the exposed surface of the compacted tablet was 3.8 cm from the bottom of the vessel when lowered. The temperature of chamber water was set at 37° C., the shaft rotation at 100 rpm, and the sampling time points at 2, 5, 10, 15, 20, 30, 45, 60, 90 and 120 min. 5 mL of solution was sampled at each time point, and the samples filtered with 0.45 μm filter. The concentration of the filtrates was analyzed by HPLC.

Form (XRPD of residual after solubility test) ([1]; 0.01N HCl): Form A | solubility at 24 h ([1]; 0.01N HCl, pH 2.24, simulated gastric fluid, initial pH 1.97, final pH 2.24): < 100 µg/mL | Solubility ([1]; 0.01N HCl, initial pH 1.97, final pH 2.24): 70 ± 0 µg/mL | Form (XRPD of residual after solubility test) ([1]; 0.1N HCl): Form A | solubility at 24 h ([1]; 0.1N HCl, pH 1.08, simulated gastric fluid, initial pH 1.02, final pH 1.08): < 100 µg/mL | Solubility ([1]; 0.1N HCl, initial pH 1.02, final pH 1.08): 60 ± 0 µg/mL | Form (XRPD of residual after solubility test) ([1]; FaSSIF): Form A | Form (XRPD of residual after solubility test) ([1]; FeSSIF): Form A | Form (XRPD of residual after solubility test) ([1]; SGF): Form A | solubility at 24 h ([1]; pH 4.0 USP buffer (50 mM), pH 4, aqueous buffer, pH 4.0 buffer, initial pH 4.05, final pH 4.13): < 100 µg/mL | Form (XRPD of residual after solubility test) ([1]; pH 4.0 buffer): Form A | Solubility ([1]; pH 4.0 buffer, initial pH 4.05, final pH 4.13): 50 ± 10 µg/mL | solubility at 24 h ([1]; pH 6.8 USP buffer (50 mM), pH 6.8, aqueous buffer, pH 6.8 buffer, initial pH 6.84, final pH 6.87): < 100 µg/mL | Form (XRPD of residual after solubility test) ([1]; pH 6.8 buffer): Form A | Solubility ([1]; pH 6.8 buffer, initial pH 6.84, final pH 6.87): 50 ± 0 µg/mL | solubility at 24 h ([1]; pH 7.4 USP buffer (50 mM), pH 7.4, aqueous buffer, pH 7.4 buffer, initial pH 7.43, final pH 7.46): < 100 µg/mL | Form (XRPD of residual after solubility test) ([1]; pH 7.4 buffer): Form A | Solubility ([1]; pH 7.4 buffer, initial pH 7.43, final pH 7.46): 60 ± 10 µg/mL | Form (XRPD of residual after solubility test) ([1]; pH 10.0 buffer): Form A | Form (XRPD of residual after solubility test) ([1]; water): Form A | water content ([2]; 40° C./75% RH after the 2-month interval, stabilized level): approximately 10% | Appearance ([2]; 0 months): White | Assay (anhydrous w/w %) ([2]; 0 months): 101.3 w/w % | Chiral purity (area %) ([2]; 0 months): 99.9 area % | Individual related substance (area %, w/w), RRT 0.46 ([2]; 0 months): 0.08 area %, w/w | Individual related substance (area %, w/w), RRT 0.64 ([2]; 0 months): 0.12 area %, w/w | Individual related substance (area %, w/w), RRT 1.26 ([2]; 0 months): 0.05 area %, w/w | Purity (area %) ([2]; 0 months): 99.8 area % | Total related substances (area %, w/w) ([2]; 0 months): 0.25 area %, w/w | Water content (%) ([2]; 0 months): 2.1% | Appearance ([2]; 1 month): White | Assay (anhydrous w/w %) ([2]; 1 month): 102.0 w/w % | Chiral purity (area %) ([2]; 1 month): 99.8 area % | Individual related substance (area %, w/w), RRT 0.46 ([2]; 1 month): 0.08 area %, w/w | Individual related substance (area %, w/w), RRT 0.64 ([2]; 1 month): 0.11 area %, w/w | Individual related substance (area %, w/w), RRT 1.26 ([2]; 1 month): 0.05 area %, w/w | Purity (area %) ([2]; 1 month): 99.8 area % | Total related substances (area %, w/w) ([2]; 1 month): 0.24 area %, w/w | Water content (%) ([2]; 1 month): 8.1% | Appearance ([2]; 2 months): White | Assay (anhydrous w/w %) ([2]; 2 months): 103.4 w/w % | Chiral purity (area %) ([2]; 2 months): 99.8 area % | Individual related substance (area %, w/w), RRT 0.46 ([2]; 2 months): 0.08 area %, w/w | Individual related substance (area %, w/w), RRT 0.64 ([2]; 2 months): 0.12 area %, w/w | Individual related substance (area %, w/w), RRT 1.26 ([2]; 2 months): 0.06 area %, w/w | Purity (area %) ([2]; 2 months): 99.7 area % | Total related substances (area %, w/w) ([2]; 2 months): 0.26 area %, w/w | Water content (%) ([2]; 2 months): 9.8% | Appearance ([2]; 3 months): White | Assay (anhydrous w/w %) ([2]; 3 months): 103.4 w/w % | Chiral purity (area %) ([2]; 3 months): 100.0 area % | Individual related substance (area %, w/w), RRT 0.46 ([2]; 3 months): 0.08 area %, w/w | Individual related substance (area %, w/w), RRT 0.64 ([2]; 3 months): 0.11 area %, w/w | Individual related substance (area %, w/w), RRT 1.26 ([2]; 3 months): 0.05 area %, w/w | Purity (area %) ([2]; 3 months): 99.8 area % | Total related substances (area %, w/w) ([2]; 3 months): 0.24 area %, w/w | Water content (%) ([2]; 3 months): 10.0% | XRPD ([2]; 3 months): Same form | Appearance ([2]; 6 months): White | Assay (anhydrous w/w %) ([2]; 6 months): 103.7 w/w % | Chiral purity (area %) ([2]; 6 months): 100.0 area % | Individual related substance (area %, w/w), RRT 0.46 ([2]; 6 months): 0.08 area %, w/w | Individual related substance (area %, w/w), RRT 0.64 ([2]; 6 months): 0.12 area %, w/w | Individual related substance (area %, w/w), RRT 1.26 ([2]; 6 months): 0.05 area %, w/w | Purity (area %) ([2]; 6 months): 99.8 area % | Total related substances (area %, w/w) ([2]; 6 months): 0.25 area %, w/w | Water content (%) ([2]; 6 months): 10.0% | XRPD ([2]; 6 months): Same form | pKa [3]: could not be detected | Detection in dissolution medium (IDR test) ([4]; 0.1N HCl): could not be detected | Intrinsic dissolution rate (mg/cm^2/min) ([4]; Water, 37° C., 100 rpm, from data of 10, 15 and 20 min): 0.9681 mg/cm^2/min | Detection in dissolution medium (IDR test) ([4]; pH 6.8 USP buffer): could not be detected | Concentration in dissolution medium (IDR test) ([4]; water, within 5 min, not detected, LOQ): < 305.1 ng/mL
SMILES: Cc1cc(C)c(-c2ccc(NC(=O)[C@H](Cc3ccc(C(=O)NCCS(=O)(=O)[O-])cc3)c3ccc(-c4ccc(C(C)(C)C)cc4)cc3)cc2)c(C)c1.[Na+] [Polymorph Form A, Sodium (R)-2-(4-(2-(4′-(tert-butyl)-[1,1′-biphenyl]-4-yl)-3-oxo-3-((2′,4′,6′-trimethyl-[1,1′-biphenyl]-4-yl)amino)propyl)benzamido)ethane-1-sulfonate]
XRPD after solubility test (overall) ([1]; all aqueous media): no new forms were found; also recorded: no change
